This note sets out measurements from patent publication US9084769B2, “Compositions comprising non steroidal anti-inflammatory drugs and methods for use thereof” (priority 2011, dated 2015).

Data set [1] can be described thus: changes in hemoglobin over seven weeks (HemoCue Hb 201). It counts as in vivo. The following applies: mice followed for seven weeks, blood on days 0, 14, 28, 49; FIG. 3.
Experimental: To investigate changes in Hb, mice treated with Epi, Ibu, ZnCar, Nap, Cox, Ibu+Epi, Ibu+ZnCar, and Ibu+Epi+ZnCar were used. A total of 5 mice per group were used. Mice were followed for seven weeks and blood was drawn on days 0, 14, 28, and 49. Hemoglobin was assessed in blood drawn from mice using a HemoCue Hb 201 analyzer. A drop of mouse blood was placed on a HemoCue microcuvette and assessed immediately. Measurements were recorded in millimole per liter.
The subject of data set [2] is acetylcholine-induced mouse writing model. Kind of data set: acetylcholine-induced mouse writing model (analgesic effects). It counts as in vivo, mice. The following applies: oral, predetermined ED50 dose ranges, 30 min before i.p. acetylcholine; writhes counted for 30 min; FIG. 1. How it is done: C57Bl/6 mice and Sprague-Dawley (SD) rats were used. Animals were group-housed under controlled temperature (25° C.) and photoperiods (12:12-hour light-dark cycle), and allowed unrestricted access to standard diet and tap water, unless otherwise noted. Animals were allowed to acclimate to these conditions for at least 7 days before inclusion in experiments. For each group of experiments, animals were matched by age, sex, and body weight. Care and experimentation of mice were performed in accordance with guidelines under protocols approved by the Institutional Animal Care and Use Committee.
To evaluate the effects of pain, the analgesic effects of Epi, ZnCar, Ibu, Nap, Cox, Ibu+Epi, Ibu+ZnCl, Ibu+ZnSt, Ibu+ZnCar, Ibu+Epi+ZnCl, and Ibu+Epi+ZnCar were tested in acetylcholine-induced (8.3 mg/kg, i.p.) mouse writing model. Seven mice were used in each group and were administered drugs orally at predetermined ED50 dose ranges. Thirty minutes after the oral administration of test drug, mice were provided with an intraperitoneal injection of 5.5 mg/kg acetylcholine bromide. […] The number of writhes was counted for 30 min and percentage nociception was calculated and correlatively compared between the groups.

The test system of data set [3] is Carrageenin-induced hind paw edema. Kind of data set: Carrageenin-induced hind paw edema. It counts as in vivo, SD rats. To be noted: oral, specific predetermined doses; plethysmometer, baseline and three hours after induction. The procedure: C57Bl/6 mice and Sprague-Dawley (SD) rats were used. Animals were group-housed under controlled temperature (25° C.) and photoperiods (12:12-hour light-dark cycle), and allowed unrestricted access to standard diet and tap water, unless otherwise noted. Animals were allowed to acclimate to these conditions for at least 7 days before inclusion in experiments. For each group of experiments, animals were matched by age, sex, and body weight. Care and experimentation of mice were performed in accordance with guidelines under protocols approved by the Institutional Animal Care and Use Committee. To evaluate the effects of inflammation, Epi, ZnCar, Ibu, Nap, Cox, Ibu+Epi, Ibu+ZnCl, Ibu+ZnSt, Ibu+ZnCar, Ibu+Epi+ZnCl, and Ibu+Epi+ZnCar were administered in specific predetermined doses. Six rats were used in each group. Carrageenin-induced hind paw edema was established in SD rats using Lambda-carrageenin solution injected so into the right hind paw within the first hour of oral administration of these drugs. The paw volume was estimated using a plethysmometer both at baseline and three hours following induction.

Like-named read-outs stand apart in the source and are kept apart here.

As to `COc1ccc2cc([C@H](C)C(=O)O)ccc2c1` [Nap, naproxen], the change in hemoglobin result in data set [1] was “progressive decrease in hemoglobin”. Also, the “change in systolic blood pressure (in words)” value (“change … (in words)” below) (mouse, in vivo) is given as “significant elevations in systolic blood pressure”.

For `Cc1ccc(-c2cc(C(F)(F)F)nn2-c2ccc(S(N)(=O)=O)cc2)cc1` [Cox, celecoxib], the change in hemoglobin result in data set [1] is given as “progressive decrease in hemoglobin”. Also, under “mice, measured daily, tail-cuff, p<0.05”, the “change … (in words)” value is on record as “significant elevations in systolic blood pressure”.

Consider `O=C[C@@H](O)[C@@H](O)[C@H](O[C@@H]1O[C@H](CO)[C@H](O)[C@H](O)[C@H]1O)[C@H](O)CO` [Epi, 4-O-β-galactopyranosyl-d-mannose], for which the “antinociceptive response (number of writhes, percentage nociception)” value in data set [2] is “did not exhibit therapeutic efficacy in the management of acute pain”. For the same compound, the “clinical response, paw volume 3 hours after carrageenin injection” value in data set [3] was “did not exhibit therapeutic efficacy in the management of acute inflammation”.

Consider zinc carnosine [ZnCar], for which, in data set [2], the “antinociceptive response (number of writhes, percentage nociception)” value is “did not exhibit therapeutic efficacy in the management of acute pain”. In data set [3], the “clinical response, paw volume 3 hours after carrageenin injection” value is “did not exhibit therapeutic efficacy in the management of acute inflammation”.

Consider `CC(C)Cc1ccc(C(C)C(=O)O)cc1` (centres unmarked) [Ibu, ibuprofen], for which, in data set [1], the change in hemoglobin result was “progressive highly significant decrease in hemoglobin”. Further, under “mouse, in vivo”, the “change … (in words)” value was “significant elevations in systolic blood pressure” and the “systolic blood pressure (mean)” value came out at 129.3 mmHg.
